Experimental data as given in patent US20070082061A1, “REDUCTION OF SALTINESS WITH SWEETENERS” (priority 2005, published 2007).
Values joined by “and” are separate entries in the source; they are usually repeats but may differ in a detail not shown here. Equal values may be shown once.

Key:
[1] = Preference comparison of sweetened and unsweetened NaCl solutions and phosphate salt bowel cleansers (Example 8); format: in vivo, human
Excerpt: To establish the reliability of the NaCI to bowel cleanser comparison, test subjects were asked to taste sweetened and unsweetened NaCI solutions and sweetened and unsweetened phosphate salt bowel cleansers. In this comparison of the sweetened and unsweetened NaCI solutions, out of 19 test subjects, 17 preferred the 2% NaCI solution that included 0.13% Sucralose. Furthermore, in the preference comparison of the sweetened and unsweetened phosphate salt bowel cleanser, 18 out of 20 test subjects preferred the phosphate salt bowel cleanser including 0.13% Sucralose. Therefore, the palatability increase provided by the Sucralose was similarly observed for the 2% NaCI/water solution and the phosphate salt bowel cleanser.

[2] = Mean acceptability ratings (Likert) of sweetener systems in phosphate salt bowel cleanser, 19 test subjects (Example 6); format: in vivo, human; conditions: at the same 0.38% concentration; systems with Ace-K
Description: A comparison between Saccharin/Ace-K and Sucralose/Ace-K was performed to determine which of these two sweetener systems most improved the palatability of a salty bowel cleanser. Table 3, below, provides the mean acceptability ratings for 19 test subjects who tasted 5:1 Saccharin/Ace-K and 5:1 Sucralose/Ace-K sweetener systems in 60 mL of the phosphate salt bowel cleanser from Example 2 in 355 mL of water.

[3] = Stability of sweeteners in FLEET PHOSPHO-SODA (Example 1)
Description: While it is possible to add the sweetener and/or flavoring a short time before consumption of a phosphate salt bowel cleanser and retain at least a portion of the palatability benefits, one goal of the present bowel cleansing compositions is to provide stable liquids having increased palatability. Thus, numerous sweeteners and flavorings were tested for stability in phosphate salt bowel cleanser.
Sucrose, Saccharin, Sucralose, Aspartame, Ace-K, Thaumatin (Talin), Neohesperidine Dihydrochalcone (NHDC), and Trehalose were tested for stability in FLEET® PHOSPHO-SODA®.

[4] = Sweetener preference in diluted phosphate salt bowel cleanser, forty test subjects (Example 5); format: in vivo, human; conditions: scale 1 to 4; 0.05% sweetener; 60 mL phosphate salt bowel cleanser in 355 mL water
Description: Each solution was prepared by diluting 60 mL of the phosphate salt bowel cleanser from Example 2 in 355 mL of water and using either 0.05% Ace-K, 0.05% Sucralose, 0.08% saccharin, 0.05% of a 5:1 Ace-K/Sucralose blend, or 15% sucrose as the sweetener.

[5] = Taste tests to determine equivalent sweetness of sweeteners in a salty liquid (Example 4); format: in vivo, human
Description: Before a preferred sweetener for use in salty liquids could be determined, the amount of each sweetener required to provide an equivalent sweetness was determined. Multiple taste tests were performed comparing various concentrations of Sucralose, Ace-K, the 5:1 Ace-K/Sucralose blend, Saccharin, and sucrose in a salty liquid to determine an equivalent […].

[6] = Preferred Sucralose concentration in PEG based bowel cleanser NuLytely, thirty test subjects (Example 11); format: in vivo, human; conditions: for rating of individual test subject / rating, Average: scale 1 to 5, 5 highly preferred, PEG based bowel cleanser
Excerpt: To determine the preferred concentration of Sucralose to reduce the saltiness of a PEG based bowel cleanser, test subjects were asked to taste unsweetened and three sweetened solutions of NuLytely®. NuLytely® is an aqueous liquid including approximately 420 g of 3350 PEG, 5.72 g of sodium bicarbonate, 11.2 g of NaCI, and 1.48 g of KCI. It has a similar perceived saltiness to the similar GoLytely®, which is an aqueous liquid including approximately 236 g of 3350 PEG, 22.74 g of sodium sulfate, 6.74 g of sodium bicarbonate, 5.86 g of NaCI, and 2.97 g of KCI. Either solution has a saltiness that approximates the 0.4% NaCl/water solution of Example 9.
Each of thirty test subjects was asked to rate the four solutions on a scale of 1 to 5 with 5 being highly preferred and 1 being least preferred. The first solution included no sweetener. The second, third, and fourth solutions included 0.01%, 0.025%, or 0.05% (w/w) of Sucralose, respectively.

[7] = Sweetener concentration preference in diluted phosphate salt bowel cleanser, about 35 testers (Example 10); format: in vivo, human; conditions: for Average rating: scale 1 to 4, 4 highly preferred, 60 mL phosphate salt bowel cleanser in 355 mL water
Description: To confirm the correlation of FIG. 1 in a bowel cleanser with multiple sweeteners, approximately 35 testers were asked to select the most palatable solution from five possibilities. Each of the five solutions included 60 mL of the phosphate salt bowel cleanser from Example 2 in 355 mL of water. This solution has an equivalent saltiness to the 2% NaCI/water solution of Example 9. The first of the five solutions lacked any sweetener, while an increasing concentration of sweetener was added to the remaining four. Tests were performed using Sucralose, the 5:1 Ace-K/Sucralose blend, Ace-K, or Saccharin as the sweetener.
Tables 8, 9, 10, and 11, below, present the average test data for each sweetener, respectively.
The sweetener concentration for each data point corresponds to those in Tables 8 through 11, above, with higher values on the X-axis corresponding to higher sweetener concentrations.

[8] = Preferred Sucralose concentration in water, 0.4% NaCl and 2% NaCl, approximately 40 testers (Example 9); format: in vivo, human; conditions: for Preferred Sucralose Concentration (wt %): correlation line of FIG. 1
Excerpt: To determine the preferred concentration of Sucralose to reduce the saltiness of bowel cleansers having different perceived saltiness, varying concentrations of Sucralose were tasted in water, a 0.4% NaCI water solution, and a 2% NaCI water solution. For each solution, approximately 40 testers were asked to rate four different concentrations of Sucralose. Tables 4, 5, and 6, below, present the average test data for the water, 0.4% NaCI water solution, and 2% NaCI water solution, respectively.
FIG. 1 plots the increasing salinity of the solutions from Tables 4, 5, and 6 against the preferred concentration of Sucralose required to reduce the saltiness and increase the palatability of each solution. The graph establishes that as saltiness increases, the amount of sweetener that should be added to improve palatability linearly increases (R^2=0.997). The X-axis NaCI and the Y-axis Sucralose concentrations represented by the correlation line from FIG. 1 are presented below in Table 7.

[9] = considered to be; cited from earlier work

OC[C@H]1O[C@H](O[C@]2(CCl)O[C@H](CCl)[C@@H](O)[C@@H]2O)[C@H](O)[C@@H](O)[C@H]1Cl [Sucralose]
number of test subjects preferring the sweetened solution ([1]; out of 19 test subjects, 2% NaCl solution with 0.13% Sucralose vs unsweetened): 17 | number of test subjects preferring the sweetened cleanser ([1]; out of 20 test subjects, phosphate salt bowel cleanser with 0.13% Sucralose vs unsweetened): 18 | preference for Sucralose over Saccharin [2]: up to 55% | stability in FLEET PHOSPHO-SODA [3]: acceptable stability | average preference value [4]: 3.2 | sweetener concentration providing an equivalent sweetness [5]: 0.05% | preference of sweetened PEG based bowel cleanser compared with the unsweetened PEG cleanser ([6]; Sucralose-sweetened NuLytely): approximately 37% | preferred Sucralose concentration ([6]; in the PEG based bowel cleanser): 0.025% | rating of individual test subject ([6]; 0.01 % Sucralose): 4 (7×) and 2 (13×) and 3 (10×) | rating, Average ([6]; 0.01 % Sucralose): 2.80 | rating of individual test subject ([6]; 0.025 % Sucralose): 4 (9×) and 2 (12×) and 3 (5×) and 1 (2×) and 5 (2×) | rating, Average ([6]; 0.025 % Sucralose): 2.90 | rating of individual test subject ([6]; 0.05 % Sucralose): 2 (11×) and 1 (8×) and 5 (2×) and 4 (7×) and 3 (2×) | rating, Average ([6]; 0.05 % Sucralose): 2.47 | preferred sweetener concentration to decrease saltiness ([7]; in the phosphate salt bowel cleanser): 0.05% | Likert preferability comparison of sweeteners (FIG. 2) ([7]; phosphate salt bowel cleanser, scale 1 to 5, 5 most preferred, in words): most preferred | Average rating ([7]; Sucralose 0.0125 % (w/w)): 2.56 | Average rating ([7]; Sucralose 0.025 % (w/w)): 2.72 | Average rating ([7]; Sucralose 0.05 % (w/w)): 3.22 | Average rating ([7]; Sucralose 0.1 % (w/w)): 2.88 | Preferred Sucralose Concentration (wt %) ([8]; NaCl Concentration 0.0 wt %): 0.011 wt % | Preferred Sucralose Concentration (wt %) ([8]; NaCl Concentration 0.2 wt %): 0.015 wt % | Preferred Sucralose Concentration (wt %) ([8]; NaCl Concentration 0.4 wt %): 0.019 wt % | Preferred Sucralose Concentration (wt %) ([8]; NaCl Concentration 0.6 wt %): 0.023 wt % | Preferred Sucralose Concentration (wt %) ([8]; NaCl Concentration 0.8 wt %): 0.027 wt % | Preferred Sucralose Concentration (wt %) ([8]; NaCl Concentration 1.0 wt %): 0.031 wt % | Preferred Sucralose Concentration (wt %) ([8]; NaCl Concentration 1.2 wt %): 0.035 wt % | Preferred Sucralose Concentration (wt %) ([8]; NaCl Concentration 1.4 wt %): 0.038 wt % | Preferred Sucralose Concentration (wt %) ([8]; NaCl Concentration 1.6 wt %): 0.042 wt % | Preferred Sucralose Concentration (wt %) ([8]; NaCl Concentration 1.8 wt %): 0.046 wt % | Preferred Sucralose Concentration (wt %) ([8]; NaCl Concentration 2.0 wt %): 0.050 wt % | Preferred Sucralose Concentration (wt %) ([8]; NaCl Concentration 2.2 wt %): 0.054 wt % | Preferred Sucralose Concentration (wt %) ([8]; NaCl Concentration 2.4 wt %): 0.058 wt % | Preferred Sucralose Concentration (wt %) ([8]; NaCl Concentration 2.6 wt %): 0.062 wt % | Preferred Sucralose Concentration (wt %) ([8]; NaCl Concentration 2.8 wt %): 0.066 wt % | Preferred Sucralose Concentration (wt %) ([8]; NaCl Concentration 3.0 wt %): 0.070 wt % | preferred level of Sucralose ([8]; in the 0.4% NaCl solution): 0.02% | preferred level of Sucralose ([8]; in the 2% NaCl solution): 0.05% | preferred level of Sucralose ([8]; in water alone): 0.005% | sweetness relative to sucrose / sugar [9]: about 600 times
